{"source": "the NIST ThermoML archive (doi:10.1021/je060501l)", "details": "Liquid", "note": "Numbers after ± are expanded uncertainties."}
{"smiles": "CC(F)F", "note": "[1,1-difluoroethane]", "values": [{"measurement": "vapor or sublimation pressure", "setting": "273.15 K", "result": "265.8 ± 8.6", "unit": "kPa"}, {"measurement": "vapor or sublimation pressure", "setting": "283.15 K", "result": "372.8 ± 12", "unit": "kPa"}, {"measurement": "vapor or sublimation pressure", "setting": "293.15 K", "result": "513.3 ± 16", "unit": "kPa"}, {"measurement": "vapor or sublimation pressure", "setting": "303.15 K", "result": "689.9 ± 22", "unit": "kPa"}, {"measurement": "vapor or sublimation pressure", "setting": "313.15 K", "result": "909.4 ± 28", "unit": "kPa"}]}
{"smiles": "CCC", "note": "[propane]", "values": [{"measurement": "vapor or sublimation pressure", "setting": "273.15 K", "result": "472.5 ± 15", "unit": "kPa"}, {"measurement": "vapor or sublimation pressure", "setting": "283.15 K", "result": "633.9 ± 20", "unit": "kPa"}, {"measurement": "vapor or sublimation pressure", "setting": "293.15 K", "result": "832.94 ± 26", "unit": "kPa"}, {"measurement": "vapor or sublimation pressure", "setting": "303.15 K", "result": "1077 ± 34", "unit": "kPa"}, {"measurement": "vapor or sublimation pressure", "setting": "313.15 K", "result": "1370 ± 43", "unit": "kPa"}]}
